Our source for the Kd values is ChEMBL document CHEMBL3991601, “The target landscape of clinical kinase drugs” (Science, 2017).

Each structure is given as a SMILES string. Activity calls are given as the source filed them. Rule as the data show it, for most assays here: actives have a measured Kd and inactives only a lower limit.

In assay [1] the target is Serine/threonine-protein kinase N1 (Homo sapiens, UniProt Q16512).
The target of assay [2] is Cyclin-dependent kinase 7 (Homo sapiens, UniProt P50613).
Chain of Cyclin-dependent kinase 7 (P50613 whole entry): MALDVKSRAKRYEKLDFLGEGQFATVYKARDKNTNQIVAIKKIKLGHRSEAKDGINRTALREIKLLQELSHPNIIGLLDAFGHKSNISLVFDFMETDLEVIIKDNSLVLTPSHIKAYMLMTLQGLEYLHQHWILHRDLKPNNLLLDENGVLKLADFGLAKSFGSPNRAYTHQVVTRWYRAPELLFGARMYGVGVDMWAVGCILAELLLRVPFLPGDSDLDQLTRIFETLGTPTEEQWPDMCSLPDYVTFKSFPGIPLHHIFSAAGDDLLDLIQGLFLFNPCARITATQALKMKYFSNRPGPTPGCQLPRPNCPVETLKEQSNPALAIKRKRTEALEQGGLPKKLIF
The target of assay [3] is T1, Serine/threonine-protein kinase LATS1 (Homo sapiens, UniProt O95835).
T1 sequence (O95835 whole entry): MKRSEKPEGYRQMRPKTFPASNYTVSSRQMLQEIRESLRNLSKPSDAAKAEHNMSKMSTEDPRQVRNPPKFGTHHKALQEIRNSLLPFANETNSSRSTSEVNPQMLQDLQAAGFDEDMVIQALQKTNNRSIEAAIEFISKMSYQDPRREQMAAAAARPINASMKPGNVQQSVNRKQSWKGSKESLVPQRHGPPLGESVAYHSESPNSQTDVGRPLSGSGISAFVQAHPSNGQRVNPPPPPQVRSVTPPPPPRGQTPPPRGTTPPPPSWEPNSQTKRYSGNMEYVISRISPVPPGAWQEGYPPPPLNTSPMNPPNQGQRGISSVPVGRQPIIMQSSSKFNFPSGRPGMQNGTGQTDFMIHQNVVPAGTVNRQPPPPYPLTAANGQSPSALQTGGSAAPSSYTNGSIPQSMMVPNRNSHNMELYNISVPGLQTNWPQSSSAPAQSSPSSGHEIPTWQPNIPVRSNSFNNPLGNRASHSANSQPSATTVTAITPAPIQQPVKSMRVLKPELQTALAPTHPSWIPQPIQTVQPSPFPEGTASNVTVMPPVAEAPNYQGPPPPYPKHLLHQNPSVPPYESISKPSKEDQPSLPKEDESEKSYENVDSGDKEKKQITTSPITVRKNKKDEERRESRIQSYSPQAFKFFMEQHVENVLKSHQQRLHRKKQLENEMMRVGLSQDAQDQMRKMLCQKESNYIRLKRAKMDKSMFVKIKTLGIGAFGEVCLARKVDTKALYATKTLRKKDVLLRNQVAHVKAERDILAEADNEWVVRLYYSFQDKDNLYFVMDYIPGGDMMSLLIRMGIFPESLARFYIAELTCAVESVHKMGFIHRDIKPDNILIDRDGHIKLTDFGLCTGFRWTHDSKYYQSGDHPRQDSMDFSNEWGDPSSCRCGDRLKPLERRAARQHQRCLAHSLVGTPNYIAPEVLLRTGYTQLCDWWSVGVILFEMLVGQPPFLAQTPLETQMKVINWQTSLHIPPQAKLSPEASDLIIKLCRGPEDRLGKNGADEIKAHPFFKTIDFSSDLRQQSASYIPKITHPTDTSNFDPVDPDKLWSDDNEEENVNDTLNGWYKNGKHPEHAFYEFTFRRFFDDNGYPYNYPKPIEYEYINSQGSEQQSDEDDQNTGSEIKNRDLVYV

Assay [4] concerns the target 5'-AMP-activated protein kinase catalytic subunit alpha-1 (Homo sapiens, UniProt Q13131).
Another assay deals with Ephrin type-A receptor 5 (Homo sapiens, UniProt P54756).
For another assay, the target named is DNA topoisomerase 2-beta (Homo sapiens, UniProt Q02880).
Chain of DNA topoisomerase 2-beta (Q02880 whole entry): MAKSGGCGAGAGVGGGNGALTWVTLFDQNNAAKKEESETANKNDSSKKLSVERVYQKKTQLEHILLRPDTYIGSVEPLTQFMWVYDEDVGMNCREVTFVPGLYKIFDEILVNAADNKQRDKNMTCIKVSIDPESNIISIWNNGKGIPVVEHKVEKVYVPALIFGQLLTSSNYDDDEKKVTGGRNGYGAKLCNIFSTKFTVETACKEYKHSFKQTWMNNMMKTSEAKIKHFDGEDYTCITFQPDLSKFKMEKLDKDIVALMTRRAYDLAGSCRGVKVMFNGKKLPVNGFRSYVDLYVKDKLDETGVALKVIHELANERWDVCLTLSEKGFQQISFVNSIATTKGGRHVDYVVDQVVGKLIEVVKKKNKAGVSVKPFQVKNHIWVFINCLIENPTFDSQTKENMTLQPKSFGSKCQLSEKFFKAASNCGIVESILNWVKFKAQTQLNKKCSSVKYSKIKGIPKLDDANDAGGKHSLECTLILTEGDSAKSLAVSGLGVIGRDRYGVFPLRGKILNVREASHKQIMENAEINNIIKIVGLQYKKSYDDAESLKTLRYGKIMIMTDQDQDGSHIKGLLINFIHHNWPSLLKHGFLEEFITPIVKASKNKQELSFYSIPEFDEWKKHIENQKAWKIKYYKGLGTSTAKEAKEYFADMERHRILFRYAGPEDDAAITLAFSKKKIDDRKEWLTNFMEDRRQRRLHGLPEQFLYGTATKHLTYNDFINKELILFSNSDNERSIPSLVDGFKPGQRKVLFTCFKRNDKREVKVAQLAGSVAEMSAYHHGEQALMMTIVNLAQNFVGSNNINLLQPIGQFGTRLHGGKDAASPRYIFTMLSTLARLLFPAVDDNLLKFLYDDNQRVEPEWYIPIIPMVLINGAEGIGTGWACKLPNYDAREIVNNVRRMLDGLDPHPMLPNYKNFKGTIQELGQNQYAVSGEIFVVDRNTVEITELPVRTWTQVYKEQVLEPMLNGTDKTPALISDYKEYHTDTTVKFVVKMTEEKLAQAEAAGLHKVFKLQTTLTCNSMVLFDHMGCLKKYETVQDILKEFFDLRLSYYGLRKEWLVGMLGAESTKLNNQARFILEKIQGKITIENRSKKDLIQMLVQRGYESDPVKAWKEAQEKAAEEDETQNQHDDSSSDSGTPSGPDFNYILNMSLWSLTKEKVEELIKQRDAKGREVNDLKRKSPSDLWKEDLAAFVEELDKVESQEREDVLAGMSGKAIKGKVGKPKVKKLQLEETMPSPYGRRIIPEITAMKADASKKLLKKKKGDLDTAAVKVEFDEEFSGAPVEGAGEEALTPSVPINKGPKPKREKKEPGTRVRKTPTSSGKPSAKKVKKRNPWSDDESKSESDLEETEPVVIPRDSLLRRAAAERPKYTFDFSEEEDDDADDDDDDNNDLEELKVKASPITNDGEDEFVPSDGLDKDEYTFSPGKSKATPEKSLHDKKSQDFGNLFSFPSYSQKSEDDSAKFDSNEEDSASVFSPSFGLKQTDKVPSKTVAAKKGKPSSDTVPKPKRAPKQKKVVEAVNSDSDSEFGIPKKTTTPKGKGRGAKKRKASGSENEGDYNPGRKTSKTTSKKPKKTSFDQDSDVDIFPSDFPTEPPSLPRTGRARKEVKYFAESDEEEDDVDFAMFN
Assay [5] has as its target T2, Adenine phosphoribosyltransferase (Homo sapiens, UniProt P07741).
T2 sequence (P07741 whole entry): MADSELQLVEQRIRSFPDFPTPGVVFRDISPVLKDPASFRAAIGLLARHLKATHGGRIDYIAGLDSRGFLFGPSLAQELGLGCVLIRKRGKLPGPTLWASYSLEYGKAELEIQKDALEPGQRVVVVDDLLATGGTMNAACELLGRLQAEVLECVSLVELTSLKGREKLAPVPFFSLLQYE

The target of assay [6] is Serine/threonine-protein kinase/endoribonuclease IRE2 (Homo sapiens, UniProt Q76MJ5).
Chain of Serine/threonine-protein kinase/endoribonuclease IRE2 (Q76MJ5 whole entry): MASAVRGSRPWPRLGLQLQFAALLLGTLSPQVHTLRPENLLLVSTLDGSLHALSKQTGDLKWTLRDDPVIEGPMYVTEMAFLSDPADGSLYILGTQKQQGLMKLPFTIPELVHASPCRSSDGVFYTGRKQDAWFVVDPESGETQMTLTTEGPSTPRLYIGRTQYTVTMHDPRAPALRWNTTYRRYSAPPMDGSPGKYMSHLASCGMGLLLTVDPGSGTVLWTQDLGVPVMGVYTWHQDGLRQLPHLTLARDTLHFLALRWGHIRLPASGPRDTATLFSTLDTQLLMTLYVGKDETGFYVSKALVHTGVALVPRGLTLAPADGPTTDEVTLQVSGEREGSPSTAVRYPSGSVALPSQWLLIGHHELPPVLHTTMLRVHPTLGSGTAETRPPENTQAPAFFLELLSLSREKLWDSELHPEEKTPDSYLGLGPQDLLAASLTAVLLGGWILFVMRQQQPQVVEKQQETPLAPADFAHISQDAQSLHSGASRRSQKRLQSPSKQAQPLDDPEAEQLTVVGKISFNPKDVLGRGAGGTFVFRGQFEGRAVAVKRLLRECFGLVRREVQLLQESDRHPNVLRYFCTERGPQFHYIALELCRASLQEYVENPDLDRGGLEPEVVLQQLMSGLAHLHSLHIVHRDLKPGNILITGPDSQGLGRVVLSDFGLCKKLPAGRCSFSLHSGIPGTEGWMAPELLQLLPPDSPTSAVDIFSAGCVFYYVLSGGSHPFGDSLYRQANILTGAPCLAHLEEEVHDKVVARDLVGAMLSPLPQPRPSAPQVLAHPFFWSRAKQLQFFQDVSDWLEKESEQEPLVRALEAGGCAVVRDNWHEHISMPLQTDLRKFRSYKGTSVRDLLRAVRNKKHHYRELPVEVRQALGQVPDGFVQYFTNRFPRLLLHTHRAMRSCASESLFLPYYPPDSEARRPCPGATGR
Assay [7] has as its target T3, Serine/threonine-protein kinase TBK1 (Homo sapiens, UniProt Q9UHD2).
T3 sequence (Q9UHD2 whole entry): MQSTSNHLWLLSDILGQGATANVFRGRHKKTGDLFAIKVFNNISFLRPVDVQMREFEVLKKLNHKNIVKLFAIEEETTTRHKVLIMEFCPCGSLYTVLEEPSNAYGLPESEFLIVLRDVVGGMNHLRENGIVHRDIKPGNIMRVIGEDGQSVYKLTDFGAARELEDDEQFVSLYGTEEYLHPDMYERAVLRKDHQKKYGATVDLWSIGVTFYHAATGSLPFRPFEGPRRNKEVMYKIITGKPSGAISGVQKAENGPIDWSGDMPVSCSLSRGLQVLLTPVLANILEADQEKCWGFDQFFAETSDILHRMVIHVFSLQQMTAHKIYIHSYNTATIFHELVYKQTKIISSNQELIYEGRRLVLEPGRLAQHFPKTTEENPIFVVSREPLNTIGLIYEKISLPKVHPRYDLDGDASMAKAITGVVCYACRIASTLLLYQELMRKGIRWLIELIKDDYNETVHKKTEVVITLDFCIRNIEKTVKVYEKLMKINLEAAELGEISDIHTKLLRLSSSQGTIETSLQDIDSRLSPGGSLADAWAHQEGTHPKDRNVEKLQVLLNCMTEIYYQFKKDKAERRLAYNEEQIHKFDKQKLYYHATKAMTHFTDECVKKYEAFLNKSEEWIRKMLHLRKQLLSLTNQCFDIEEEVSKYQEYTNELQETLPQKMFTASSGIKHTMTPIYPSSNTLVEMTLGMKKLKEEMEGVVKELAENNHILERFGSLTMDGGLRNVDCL

Assay [8] has as its target Protein-tyrosine kinase 6 (Homo sapiens, UniProt Q13882).
Assay [9] addresses cAMP-dependent protein kinase catalytic subunit alpha (Homo sapiens, UniProt P17612).
Also: in the data inactive means no Kd found up to 30 µM.

Chain of Protein-tyrosine kinase 6 (Q13882 whole entry): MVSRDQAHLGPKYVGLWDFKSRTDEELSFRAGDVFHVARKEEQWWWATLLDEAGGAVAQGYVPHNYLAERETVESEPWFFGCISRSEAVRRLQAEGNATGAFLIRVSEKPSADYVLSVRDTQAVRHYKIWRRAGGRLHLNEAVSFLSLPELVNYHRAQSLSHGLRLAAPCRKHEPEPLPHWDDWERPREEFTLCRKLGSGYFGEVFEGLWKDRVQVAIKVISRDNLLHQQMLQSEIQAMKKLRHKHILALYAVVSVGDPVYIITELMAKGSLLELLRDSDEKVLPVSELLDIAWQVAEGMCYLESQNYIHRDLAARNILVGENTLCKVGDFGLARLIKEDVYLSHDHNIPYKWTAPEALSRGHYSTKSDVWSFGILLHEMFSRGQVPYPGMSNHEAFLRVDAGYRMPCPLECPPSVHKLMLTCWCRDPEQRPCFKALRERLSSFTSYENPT
Chain of 5'-AMP-activated protein kinase catalytic subunit alpha-1 (Q13131 whole entry): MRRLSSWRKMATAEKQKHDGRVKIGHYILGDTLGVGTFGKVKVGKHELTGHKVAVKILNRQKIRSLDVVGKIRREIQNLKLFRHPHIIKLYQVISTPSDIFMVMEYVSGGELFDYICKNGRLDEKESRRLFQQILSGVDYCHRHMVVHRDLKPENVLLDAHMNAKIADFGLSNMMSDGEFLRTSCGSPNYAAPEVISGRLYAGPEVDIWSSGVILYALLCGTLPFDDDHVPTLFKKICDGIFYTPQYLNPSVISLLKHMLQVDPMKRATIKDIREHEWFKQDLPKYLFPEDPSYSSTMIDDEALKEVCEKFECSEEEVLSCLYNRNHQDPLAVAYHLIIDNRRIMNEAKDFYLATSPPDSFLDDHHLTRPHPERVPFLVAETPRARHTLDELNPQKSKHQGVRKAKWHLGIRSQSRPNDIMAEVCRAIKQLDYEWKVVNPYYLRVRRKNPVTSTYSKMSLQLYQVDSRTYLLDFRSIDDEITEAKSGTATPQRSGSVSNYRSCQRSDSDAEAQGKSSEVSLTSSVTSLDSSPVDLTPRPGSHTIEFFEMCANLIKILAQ
Chain of Serine/threonine-protein kinase N1 (Q16512 whole entry): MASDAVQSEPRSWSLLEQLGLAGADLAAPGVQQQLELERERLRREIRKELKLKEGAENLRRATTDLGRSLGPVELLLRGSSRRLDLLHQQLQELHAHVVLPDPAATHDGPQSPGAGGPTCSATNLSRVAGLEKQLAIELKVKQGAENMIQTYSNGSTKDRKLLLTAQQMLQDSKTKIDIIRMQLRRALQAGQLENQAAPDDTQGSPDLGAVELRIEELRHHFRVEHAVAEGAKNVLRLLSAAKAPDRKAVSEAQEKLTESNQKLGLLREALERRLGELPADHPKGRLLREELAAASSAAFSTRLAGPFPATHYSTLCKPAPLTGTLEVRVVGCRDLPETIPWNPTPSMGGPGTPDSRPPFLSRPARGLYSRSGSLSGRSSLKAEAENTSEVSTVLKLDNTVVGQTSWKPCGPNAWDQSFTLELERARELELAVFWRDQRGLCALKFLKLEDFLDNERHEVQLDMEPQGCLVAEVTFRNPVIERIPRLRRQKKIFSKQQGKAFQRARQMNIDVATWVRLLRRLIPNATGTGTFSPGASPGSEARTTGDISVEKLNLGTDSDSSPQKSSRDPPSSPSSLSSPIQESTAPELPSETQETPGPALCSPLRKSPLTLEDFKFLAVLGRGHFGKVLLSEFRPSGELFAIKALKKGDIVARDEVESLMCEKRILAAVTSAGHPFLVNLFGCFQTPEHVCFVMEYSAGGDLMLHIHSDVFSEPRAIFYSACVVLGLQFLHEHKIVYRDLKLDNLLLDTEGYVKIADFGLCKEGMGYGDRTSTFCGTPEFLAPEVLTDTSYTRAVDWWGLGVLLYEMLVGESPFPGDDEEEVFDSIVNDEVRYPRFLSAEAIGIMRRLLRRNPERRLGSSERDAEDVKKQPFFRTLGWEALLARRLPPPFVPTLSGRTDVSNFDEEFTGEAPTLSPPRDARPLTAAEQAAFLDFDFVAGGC

On to `CNC(=O)c1cccc(-c2ccc3c(N4CCOC[C@@H]4C)nc(N4CCOC[C@@H]4C)nc3n2)c1` [VISTUSERTIB], for which the Kd (in [1]; in assay [2]; in assay [3]; in assay [4]; on Ephrin type-A receptor 5; on DNA topoisomerase 2-beta) was > 30 µM (inactive) in each case. Besides, the Kd in assay [5], in assay [6], in assay [7], in [8] and in assay [9] was > 30 µM (inactive) in each case.
For `NC(=O)c1ccc(N(C(N)=O)c2c(F)cccc2F)nc1-c1ccc(F)cc1F` [VX-702], the Kd (in [1]; in assay [2]; in assay [3]; in assay [4]; on Ephrin type-A receptor 5; at DNA topoisomerase 2-beta) was > 30 µM (inactive) throughout. Moreover, the Kd in [5], in assay [6], in [7], in assay [8] and in assay [9] was > 30 µM (inactive) throughout.
On to `O=C(Nc1ccc(OC(F)(F)F)cc1)c1sccc1NCc1ccnc2ccccc12` [OSI-930], for which the Kd (in assay [1]; in [2]; in [3]; in assay [4]; on Ephrin type-A receptor 5; on DNA topoisomerase 2-beta) was > 30 µM (inactive) in each case. Moreover, the Kd in assay [5], in assay [6], in assay [7], in assay [8] and in assay [9] was > 30 µM (inactive) in each case.
For the compound `COc1ccc(-c2ccc3ncc4c(c3c2)n(-c2ccc(N3CCNCC3)c(C(F)(F)F)c2)c(=O)n4C)cn1` [BGT-226 FREE BASE], the Kd (in assay [1]; in assay [2]; in assay [3]; in [4]; at Ephrin type-A receptor 5; at DNA topoisomerase 2-beta) was > 30 µM (inactive) in each case. For the same compound, the Kd in assay [5], in [6], in [7], in [8] and in [9] was > 30 µM (inactive) in each case.
With `O=C(O)c1ccc2c(c1)nc(Nc1cccc(Cl)c1)c1ccncc12` [SILMITASERTIB], the equilibrium dissociation constant (Kd) in assay [1] is 20.4 µM (active); in assay [2], 7.12 µM (active); in assay [3], > 30 µM (inactive); in assay [4] it was 15.4 µM (active); at Ephrin type-A receptor 5, > 30 µM (inactive); on DNA topoisomerase 2-beta, > 30 µM (inactive). Besides, the Kd in assay [5], in assay [6], in assay [7], in assay [8] and in assay [9] was > 30 µM (inactive) throughout.
Regarding `c1cc(OCCN2CCCCC2)cc(-c2n[nH]c3ccc(-c4nc[nH]n4)cc23)c1` [CC-401], the Kd (in [1]; in assay [2]; in assay [3]; in assay [4]; on Ephrin type-A receptor 5; at DNA topoisomerase 2-beta) was > 30 µM (inactive) throughout. Moreover, the Kd in [5], in [6], in assay [7], in assay [8] and in assay [9] was > 30 µM (inactive) throughout.
Take `C=CC(=O)Nc1cccc(Nc2nc(Nc3ccc(N4CCN(C(C)=O)CC4)cc3OC)ncc2C(F)(F)F)c1` [ROCILETINIB]: the Kd (in assay [1]; in assay [2]; in assay [3]; in assay [4]; on Ephrin type-A receptor 5; at DNA topoisomerase 2-beta) was > 30 µM (inactive) each time. Also, the Kd in assay [5], in assay [6], in [7], in assay [8] and in [9] was > 30 µM (inactive) in each case.
For `COc1cc2ncnc(Nc3ccc(O)cc3)c2cc1OC` [WHI-P131], the Kd (in assay [1]; in assay [2]; in assay [3]; in assay [4]; at Ephrin type-A receptor 5; on DNA topoisomerase 2-beta) was > 30 µM (inactive) throughout. The Kd in [5], in [6], in assay [7], in assay [8] and in assay [9] was > 30 µM (inactive) each time.
On to `Cn1c(=O)c(F)c(Nc2ccc(I)cc2F)c2c(=O)n(C[C@@H](O)CO)cnc21` [TAK-733], for which the Kd (in [1]; in assay [2]; in [3]; in assay [4]; on Ephrin type-A receptor 5; at DNA topoisomerase 2-beta) was > 30 µM (inactive) in each case. Also, the Kd in assay [5], in assay [6], in [7], in assay [8] and in [9] was > 30 µM (inactive) throughout.
`COc1cccc(Nc2ncnn3ccc(CN4CC[C@@H](N)[C@H](O)C4)c23)c1` [BMS-690514]: the Kd in [1] is 1.34 µM (active); in assay [2], > 30 µM (inactive); in [3] it was > 30 µM (inactive); in assay [4], > 30 µM (inactive); at Ephrin type-A receptor 5, > 30 µM (inactive); on DNA topoisomerase 2-beta it was > 30 µM (inactive). The Kd is > 30 µM (inactive) in [5]; > 30 µM (inactive) in [6]; > 30 µM (inactive) in assay [7]; > 30 µM (inactive) in [8]; 0.916 µM (active) in assay [9].
Turning to `S=C(NCc1ccc2c(c1)OCO2)N1CCN(c2ncnc3c2oc2ccccc23)CC1` [AMUVATINIB], the Kd (in assay [1]; in assay [2]; in assay [3]; in [4]; on Ephrin type-A receptor 5; on DNA topoisomerase 2-beta) was > 30 µM (inactive) in each case. For the same compound, the Kd in assay [5], in assay [6], in [7], in assay [8] and in assay [9] was > 30 µM (inactive) in each case.
